Data set [1] deals with A549 cells. Put plainly: Cell survival rate (MTT) in A549 cells. The format is cell-based. As to conditions: after 24 hours and 48 hours, up to a concentration of 25 µM. As for the experimental part: (§1) Specifically, A549 cells were obtained from the Korean Cell Line Bank (KCLB) and subcultured using a RPMI-1640 medium supplemented with 10% fetal bovine serum (FBS) and 1% Penicillin, and MDCK cells were obtained from ATCC and subcultured using a DMEM medium supplemented with 10% FBS. 200 µl each of the A549 cells and MDCK cells incubated in an incubator under 37°C and 5% CO2 conditions were dispensed at 2 × 10^4 cells/well in a 96-well plate, and then a control group was treated with 100 µl of the medium, and experimental groups were treated with 1.25, 25, 50, and 100 µM of Telmisartan or Olmesartan, respectively. After 24 hours and 48 hours, all of the wells were treated with 50 µl each of a 2 mg/ml MTT reagent and incubated in an incubator for 3 hours, and then each well was added with 500 µl of DMSO, wrapped in foil, stirred for 30 minutes at room temperature, and the absorbance was measured at 570 nm to obtain the cell survival rate.

The test system of data set [2] is MDCK cells. Put plainly: Cell survival rate (MTT) in MDCK cells. The data set is classed as cell-based. Conditions: after 24 hours and 48 hours, up to a concentration of 25 µM. As for the experimental part: as §1
The nature of data set [3]: Drug-drug compatibility test under accelerated stability conditions. The format is physicochemical. As to conditions: for flexible substance / content (ARB) / content (SGLT-2 inhibitor): HPLC; for content (ARB): first figure of the cell; for property: color, clumping, etc.; for content (SGLT-2 inhibitor): second figure of the cell. As for the experimental part: Specifically, after storing a mixture of ARB and SGLT-2 inhibitor for 2 weeks under accelerated stability test conditions (40 ± 2°C/75 ± 5% relative humidity), changes in the contents of each ingredient and flexible substance and changes in properties (color, clumping, etc.) were analyzed. Olmesartan, Valsartan, and Telmisartan were used as ARBs, and Empagliflozin, Dapagliflozin (Dapagliflozin propanediol monohydrate), and Canagliflozin were used as SGLT-2 inhibitors.

Data set [4] deals with angiotensin converting enzyme (ACE). Put plainly: ACE mRNA expression (RT-PCR, normalized to GAPDH) in LPS inflammation-induced H9c2 cells. The format is cell-based, rat. As for the experimental part:
Specifically, LPS inflammation-induced H9c2 cells in Experimental Example 1-2 were treated with 10 or 25 µM Telmisartan and 10 or 50 µM Olmesartan, and then treated with 200 µl of chloroform together with 1 ml of TRIZol (Sigma, USA), gently mixed, and separated for 10 minutes, and then centrifuged at 4°C and 10,000 rpm for 10 minutes. After centrifugation, only the supernatant from the tube was taken and transferred to a new sterile tube, and the supernatant was treated with 500 µl of isopropanol to precipitate RNA. The precipitated RNA was centrifuged at 4°C, 10,000 rpm for 10 minutes, and then the supernatant except for the pellets in the tube was fully removed, and the RNA pellets were treated with 500 µl of 75% ethyl alcohol and thoroughly washed. The washed pellets were centrifuged at 4°C, 10,000 rpm for 5 minutes, and then the supernatant except the pellets was fully removed. The tube containing the pellets from which the supernatant had been cleanly removed was treated with diethyl pyrocarbonate (DEPC)-water and stored at - 80°C for use in an RT-PCR experiment.
RT-PCR was performed by synthesizing cDNA from mRNA using an RT-PCR kit containing DNA polymerase, buffer, dNTP, and tracking dye, and then using ACE primers in Table 1 under the conditions in Table 2 for 35 cycles. The PCR products were electrophoresed on a […] agarose gel, identified using a UV transilluminator, and expressed as normalized to GAPDH for quantitative comparison.
In order to confirm the effect of each combination or single substance on the mRNA expression of ACE, the experimental samples in Table 3 were treated to H9c2 cells induced with LPS inflammation in Experimental Example 1-2, respectively, and then the mRNA expression of ACE was evaluated in the same manner as in Experimental Example 1-3.

A short description of data set [5]: 4-week repeated oral administration toxicity. The format is in vivo, Sprague-Dawley rats. As to conditions: daily for 4 weeks, blood test. As for the experimental part: Specifically, groups were configured in the same manner as in Experimental Example 4-1, and the combinations were administered orally daily for 4 weeks to 5 male and 5 female 6-week-old Sprague-Dawley rats per group. During the test, general symptom observation, blood test, and body weight measurement were performed, and after the observation period ended, the rats were euthanized and autopsied.

The conditions of data set [6]: Dapagliflozin 10 mg in the presence of Telmisartan 80 mg, repeated oral, steady state.
[7] abbreviates: Acceleration 1 week, 40 ± 2°C/75 ± 5% relative humidity.
Setting [8] is: Acceleration 2 week, 40 ± 2°C/75 ± 5% relative humidity.
Where [9] appears, read: experimental samples at the concentrations of Table 3.
[10] abbreviates: alone, low-concentration administration groups of 2.5 µM to 10 µM.

Each structure is given as a SMILES string.

The text below walks through data of patent publication EP4640223A1, “PHARMACEUTICAL COMPOSITION FOR PREVENTION OR TREATMENT OF CARDIOVASCULAR DISEASE, COMPRISING SODIUM-GLUCOSE COTRANSPORTER-2 INHIBITOR AND ANGIOTENSIN II RECEPTOR BLOCKER” (THPharm Corp., priority 2022, dated 2024).

As to `CCCc1nc(C(C)(C)O)c(C(=O)O)n1Cc1ccc(-c2ccccc2-c2nnn[nH]2)cc1` [Olmesartan], the cell survival rate result in data set [1] and in data set [2] was “no effect” in each case.

As for `CCCc1nc2c(C)cc(-c3nc4ccccc4n3C)cc2n1Cc1ccc(-c2ccccc2C(=O)O)cc1` [Com. Ex. 16, Telmisartan], in data set [3] (setting [7]), the flexible substance was 0.1 or less, the “content (ARB)” value is 100.1% and the property entry was “suitable”. In data set [3] (setting [8]), the flexible substance is 0.1 or less, the “content (ARB)” value was found to be 100% and the property entry is “suitable”. In data set [3] (Initial), the flexible substance was 0.1 or less, the “content (ARB)” value is 100.1% and the property result was “suitable”.

For the molecule `Cc1ccc([C@@H]2O[C@H](CO)[C@@H](O)[C@H](O)[C@H]2O)cc1Cc1ccc(-c2ccc(F)cc2)s1` [Com. Ex. 21, Canagliflozin], in data set [3] (setting [7]), the flexible substance is on record as 1.0 or less, the “content (SGLT-2 inhibitor)” value was 95.2% and the property result is given as “unsuitable”. Moreover, in data set [3] (setting [8]), the flexible substance is 5.0 or more, the “content (SGLT-2 inhibitor)” value was found to be 89.2% and the property entry is reported as “unsuitable”. Moreover, in data set [3] (Initial), the flexible substance is 0.1 or less, the “content (SGLT-2 inhibitor)” value is listed as 99.5% and the property entry is given as “suitable”.

As for `CCCc1nc2c(C)cc(-c3nc4ccccc4n3C)cc2n1Cc1ccc(-c2ccccc2C(=O)O)cc1` [Comparative Example 14, Telmisartan], the “mRNA expression of ACE” value in data set [4] (setting [9]) is “decrease below the normal level”.

Take `OC[C@H]1O[C@@H](c2ccc(Cl)c(Cc3ccc(O[C@H]4CCOC4)cc3)c2)[C@H](O)[C@@H](O)[C@@H]1O` [Comparative Example 8, Empagliflozin]: the “mRNA expression of ACE” value in data set [4] (setting [9]) is on record as “decrease below the normal level”.

Take `CCCCC(=O)N(Cc1ccc(-c2ccccc2-c2nnn[nH]2)cc1)[C@H](C(=O)O)C(C)C` [Com. Ex. 20, Valsartan]: the flexible substance is listed as 0.1 or more in data set [3] (setting [7]), 0.1 or more in data set [3] (setting [8]) and 0.1 or less in data set [3] (Initial). The “content (ARB)” value was 99.4% in data set [3] (setting [7]), 99.2% in data set [3] (setting [8]) and 99.7% in data set [3] (Initial). In addition, the property result in data set [3] (setting [7]), in data set [3] (setting [8]) and in data set [3] (Initial) was “suitable” throughout.

In the case of `OC[C@H]1O[C@@H](c2ccc(Cl)c(Cc3ccc(O[C@H]4CCOC4)cc3)c2)[C@H](O)[C@@H](O)[C@@H]1O` [Com. Ex. 17, Empagliflozin], in data set [3] (setting [7]), the flexible substance is on record as 1.0 or less, the “content (SGLT-2 inhibitor)” value is on record as 97.3% and the property entry was “suitable”. Besides, in data set [3] (setting [8]), the flexible substance is 1.0 or more, the “content (SGLT-2 inhibitor)” value worked out at 95.1% and the property entry is given as “suitable”. In addition, in data set [3] (Initial), the flexible substance was 0.1 or less, the “content (SGLT-2 inhibitor)” value worked out at 99.9% and the property entry is listed as “suitable”.

In the case of `OC[C@H]1O[C@@H](c2ccc(Cl)c(Cc3ccc(O[C@H]4CCOC4)cc3)c2)[C@H](O)[C@@H](O)[C@@H]1O` [Empagliflozin, (1S)-1,5-anhydro-1-C-[4-chloro-3-[[4-[[(3S)-tetrahydro-3-furanyl]oxy]phenyl]methyl]phenyl]-D-glucitol], in data set [4] (setting [10]), the “mRNA expression of ACE” value is “did not decrease to a normal level”.

In the case of `CCOc1ccc(Cc2cc([C@@H]3O[C@H](CO)[C@@H](O)[C@H](O)[C@H]3O)ccc2Cl)cc1` [Dapagliflozin, (1S)-1,5-anhydro-1-C-{4-chloro-3-[(4-ethoxyphenyl)methyl]phenyl}-D-glucitol], in data set [4] (setting [10]), the “mRNA expression of ACE” value is “did not decrease to a normal level”. Also, the GLU result in data set [5] is reported as “decreased”. The “Cmax T/R ratio” value in data set [6] (90% confidence interval 0.93 to1.12) is 1.02. In data set [6] (90% confidence interval 0.97 to 1.03), the “AUC T/R ratio” value is 1.00.
